# ChEMBL document CHEMBL3885881, “DrugMatrix”
# Species: Rattus norvegicus
# Test: DrugMatrix - Regimen: Daily Repeat
# Format: toxicity, organism-based, Sprague-Dawley
# Design: regimen Daily Repeat, gender Male, age 6-8 weeks
# Settings: in vivo, po, route oral GAVAGE, vehicle 100 % WATER
# [1] = 70 mg/kg, 72 h, tissue Blood, dose level Low, time 3 day
# [2] = 70 mg/kg, 72 h, tissue Plasma, dose level Low, time 3 day
# [3] = 70 mg/kg, 120 h, tissue Blood, dose level Low, time 5 day
# [4] = 70 mg/kg, 120 h, tissue Plasma, dose level Low, time 5 day
# [5] = 700 mg/kg, 72 h, tissue Blood, dose level High, time 3 day
# [6] = 700 mg/kg, 72 h, tissue Plasma, dose level High, time 3 day
# [7] = 700 mg/kg, 120 h, tissue Blood, dose level High, time 5 day
# [8] = 700 mg/kg, 120 h, tissue Plasma, dose level High, time 5 day
sequence,measurement,setting,value
MANGANESE CHLORIDE ANHYDROUS,ABSOLUTE BASOPHIL,[1],0 CELLS/uL
same,ABSOLUTE EOSINOPHIL,[1],0 CELLS/uL
same,ABSOLUTE LYMPHOCYTE,[1],8843.67 CELLS/uL
same,ABSOLUTE MONOCYTE,[1],103.33 CELLS/uL
same,ABSOLUTE SEGMENTED NEUTROPHIL,[1],819.67 CELLS/uL
same,BASOPHIL,[1],0%
same,EOSINOPHIL,[1],0%
same,ERYTHROCYTE COUNT,[1],5.19 x10E6/uL
same,HEMATOCRIT,[1],32.17%
same,HEMOGLOBIN,[1],12.2 G/DL
same,LEUKOCYTE COUNT,[1],9.77 x10E3/uL
same,LYMPHOCYTE,[1],90%
same,MEAN CORPUSCULAR HEMOGLOBIN,[1],23.5 pg
same,MEAN CORPUSCULAR HEMOGLOBIN CONCENTRATION,[1],37.93 G/DL
same,MEAN CORPUSCULAR VOLUME,[1],61.97 fL
same,MONOCYTE,[1],0.67%
same,NUCLEATED RED BLOOD CELLS,[1],0 /100WBC
same,PLATELET COUNT,[1],1240.67 x10E3/uL
same,ALANINE AMINOTRANSFERASE,[2],53.33 u/L
same,ALKALINE PHOSPHATASE,[2],482 u/L
same,ASPARTATE AMINOTRANSFERASE,[2],91.67 u/L
same,BLOOD UREA NITROGEN,[2],13.33 mg/dL
same,CARBON DIOXIDE,[2],35.33 mmol/L
same,CHLORIDE,[2],99 MEQ/L
same,CHOLESTEROL,[2],84 mg/dL
same,CREATINE PHOSPHOKINASE,[2],442.33 u/L
same,CREATININE,[2],0.22 mg/dL
same,GLUCOSE,[2],139.33 mg/dL
same,LACTATE DEHYDROGENASE,[2],131 u/L
same,PHOSPHORUS,[2],12.07 mg/dL
same,POTASSIUM,[2],6.21 MEQ/L
same,TOTAL BILIRUBIN,[2],0.17 mg/dL
same,TOTAL PROTEIN,[2],6.27 G/DL
same,URIC ACID,[2],0.57 mg/dL
same,ABSOLUTE BASOPHIL,[3],0 CELLS/uL
same,ABSOLUTE EOSINOPHIL,[3],184.33 CELLS/uL
same,ABSOLUTE MONOCYTE,[3],189.67 CELLS/uL
same,ABSOLUTE SEGMENTED NEUTROPHIL,[3],2003 CELLS/uL
same,BASOPHIL,[3],0%
same,EOSINOPHIL,[3],1%
same,ERYTHROCYTE COUNT,[3],4.88 x10E6/uL
same,HEMATOCRIT,[3],30.07%
same,HEMOGLOBIN,[3],11.73 G/DL
same,LEUKOCYTE COUNT,[3],15.07 x10E3/uL
same,LYMPHOCYTE,[3],84%
same,MEAN CORPUSCULAR HEMOGLOBIN,[3],24.27 pg
same,MEAN CORPUSCULAR HEMOGLOBIN CONCENTRATION,[3],39.03 G/DL
same,NEUTROPHIL,[3],13.67%
same,NUCLEATED RED BLOOD CELLS,[3],0.33 /100WBC
same,PLATELET COUNT,[3],1245 x10E3/uL
same,ALANINE AMINOTRANSFERASE,[4],35.67 u/L
same,ALBUMIN,[4],3.9 G/DL
same,ALKALINE PHOSPHATASE,[4],338 u/L
same,ASPARTATE AMINOTRANSFERASE,[4],64.33 u/L
same,BLOOD UREA NITROGEN,[4],13.67 mg/dL
same,CARBON DIOXIDE,[4],31.67 mmol/L
same,CHOLESTEROL,[4],69.33 mg/dL
same,CREATINE PHOSPHOKINASE,[4],218 u/L
same,CREATININE,[4],0.22 mg/dL
same,GLUCOSE,[4],158.33 mg/dL
same,LACTATE DEHYDROGENASE,[4],105.67 u/L
same,PHOSPHORUS,[4],13.3 mg/dL
same,POTASSIUM,[4],6.22 MEQ/L
same,TOTAL BILIRUBIN,[4],0.17 mg/dL
same,TOTAL PROTEIN,[4],5.83 G/DL
same,ABSOLUTE BASOPHIL,[5],0 CELLS/uL
same,ABSOLUTE EOSINOPHIL,[5],33.67 CELLS/uL
same,ABSOLUTE LYMPHOCYTE,[5],10434.33 CELLS/uL
same,ABSOLUTE MONOCYTE,[5],178.67 CELLS/uL
same,ABSOLUTE SEGMENTED NEUTROPHIL,[5],1653.33 CELLS/uL
same,BASOPHIL,[5],0%
same,EOSINOPHIL,[5],0.33%
same,ERYTHROCYTE COUNT,[5],4.97 x10E6/uL
same,HEMATOCRIT,[5],30.43%
same,HEMOGLOBIN,[5],11.8 G/DL
same,LEUKOCYTE COUNT,[5],12.3 x10E3/uL
same,LYMPHOCYTE,[5],85.67%
same,MEAN CORPUSCULAR HEMOGLOBIN,[5],23.77 pg
same,MEAN CORPUSCULAR HEMOGLOBIN CONCENTRATION,[5],38.77 G/DL
same,NEUTROPHIL,[5],12.67%
same,NUCLEATED RED BLOOD CELLS,[5],0 /100WBC
same,PLATELET COUNT,[5],1357.33 x10E3/uL
same,ALANINE AMINOTRANSFERASE,[6],45 u/L
same,ALBUMIN,[6],3.77 G/DL
same,ALKALINE PHOSPHATASE,[6],329.67 u/L
same,ASPARTATE AMINOTRANSFERASE,[6],86.33 u/L
same,BLOOD UREA NITROGEN,[6],13.67 mg/dL
same,CARBON DIOXIDE,[6],36.33 mmol/L
same,CHLORIDE,[6],99 MEQ/L
same,CHOLESTEROL,[6],63.33 mg/dL
same,CREATINE PHOSPHOKINASE,[6],347.67 u/L
same,CREATININE,[6],0.26 mg/dL
same,GLUCOSE,[6],139.67 mg/dL
same,LACTATE DEHYDROGENASE,[6],119 u/L
same,PHOSPHORUS,[6],11.6 mg/dL
same,POTASSIUM,[6],5.86 MEQ/L
same,SODIUM,[6],145.53 MEQ/L
same,TOTAL BILIRUBIN,[6],0.17 mg/dL
same,TOTAL PROTEIN,[6],6.23 G/DL
same,URIC ACID,[6],0.47 mg/dL
same,ABSOLUTE BASOPHIL,[7],0 CELLS/uL
same,ABSOLUTE EOSINOPHIL,[7],0 CELLS/uL
same,ABSOLUTE LYMPHOCYTE,[7],14144.67 CELLS/uL
same,ABSOLUTE MONOCYTE,[7],257.33 CELLS/uL
same,ABSOLUTE SEGMENTED NEUTROPHIL,[7],3531.33 CELLS/uL
same,BASOPHIL,[7],0%
same,EOSINOPHIL,[7],0%
same,ERYTHROCYTE COUNT,[7],5.15 x10E6/uL
same,HEMATOCRIT,[7],30.93%
same,HEMOGLOBIN,[7],11.9 G/DL
same,LEUKOCYTE COUNT,[7],17.93 x10E3/uL
same,LYMPHOCYTE,[7],79.67%
same,MEAN CORPUSCULAR HEMOGLOBIN,[7],23.1 pg
same,MEAN CORPUSCULAR VOLUME,[7],60.03 fL
same,NEUTROPHIL,[7],19%
same,NUCLEATED RED BLOOD CELLS,[7],0 /100WBC
same,PLATELET COUNT,[7],1336.67 x10E3/uL
same,ALANINE AMINOTRANSFERASE,[8],40 u/L
same,ALKALINE PHOSPHATASE,[8],346.33 u/L
same,ASPARTATE AMINOTRANSFERASE,[8],68.67 u/L
same,BLOOD UREA NITROGEN,[8],12.67 mg/dL
same,CARBON DIOXIDE,[8],33.67 mmol/L
same,CHOLESTEROL,[8],76.33 mg/dL
same,CREATINE PHOSPHOKINASE,[8],209.67 u/L
same,CREATININE,[8],0.31 mg/dL
same,GLUCOSE,[8],139.67 mg/dL
same,LACTATE DEHYDROGENASE,[8],88.67 u/L
same,POTASSIUM,[8],5.7 MEQ/L
same,TOTAL BILIRUBIN,[8],0.17 mg/dL
same,TOTAL PROTEIN,[8],5.97 G/DL
same,URIC ACID,[8],0.4 mg/dL
